The subject of data set [1] is Homo sapiens. The data set is described as follows: Unbound renal drug clearance in healthy human subjects (6 subjects) at 500 mg, iv by Sarcina lutea based bioassay. In kind it is ADME, organism-based, Kidney. To be noted: in vivo.
The nature of data set [2]: Terminal half life in patient with severe cirrhosis (5 patients) at 500 mg, iv by Sarcina lutea based bioassay. To be noted: human, in vivo, read-out: beta t1/2 (converted). In kind it is ADME, organism-based.
In data set [3] the test system is Homo sapiens. The data set is described as follows: Unbound non-renal drug clearance in patient with severe cirrhosis (5 patients) at 500 mg, iv by Sarcina lutea based bioassay. In kind it is ADME, organism-based. To be noted: in vivo.
Data set [4] deals with Homo sapiens. The data set is described as follows: Unbound non-renal drug clearance in healthy human subjects (6 subjects) at 500 mg, iv by Sarcina lutea based bioassay. The class given is ADME, organism-based. To be noted: in vivo.
In data set [5] the test system is Homo sapiens. The data set is described as follows: Unbound drug clearance in healthy human subjects (6 subjects) at 500 mg, iv by Sarcina lutea based bioassay. The class given is ADME, organism-based. Conditions: in vivo.
Data set [6] in a line: Unbound fraction in serum of patient with severe cirrhosis (5 patients) at 500 mg, iv by Sarcina lutea based bioassay. The class given is ADME, organism-based. Conditions: human.
Data set [7] in a line: Volume of distribution at steady state in healthy human subjects (6 subjects) at 500 mg, iv by Sarcina lutea based bioassay. In kind it is ADME, organism-based. To be noted: in vivo, read-out: Vdss.
Data set [8] in a line: Volume of distribution at steady state in patient with severe cirrhosis (5 patients) at 500 mg, iv by Sarcina lutea based bioassay. The class given is ADME, organism-based. Conditions: human, in vivo, read-out: Vdss.
The nature of data set [9]: Total drug clearance in healthy human subjects (6 subjects) at 500 mg, iv by Sarcina lutea based bioassay. The class given is ADME, organism-based. Conditions: in vivo.
The nature of data set [10]: Unbound fraction in serum of healthy human subjects (6 subjects) at 500 mg, iv by Sarcina lutea based bioassay. In kind it is ADME, organism-based.
Data set [11] concerns Homo sapiens. The data set is described as follows: Unbound drug clearance in patient with severe cirrhosis (5 patients) at 500 mg, iv by Sarcina lutea based bioassay. Conditions: in vivo. The class given is ADME, organism-based.
Data set [12] concerns Homo sapiens. The data set is described as follows: Unbound renal drug clearance in patient with severe cirrhosis (5 patients) at 500 mg, iv by Sarcina lutea based bioassay. The class given is ADME, organism-based, Kidney. To be noted: in vivo.
Data set [13] is described as follows: Terminal half life in healthy human subjects (6 subjects) at 500 mg, iv by Sarcina lutea based bioassay. The class given is ADME, organism-based. Conditions: in vivo, read-out: beta t1/2 (converted).
Data set [14] is described as follows: Total drug clearance in patient with severe cirrhosis (5 patients) at 500 mg, iv by Sarcina lutea based bioassay. In kind it is ADME, organism-based. To be noted: human, in vivo.

By fraction unbound is commonly meant the share of the substance not bound to proteins or other matrix. As a reminder, the clearance is the rate of elimination divided by the concentration. In the case of `CC[C@H]1OC(=O)[C@H](C)[C@@H](O[C@H]2C[C@@](C)(OC)[C@@H](O)[C@H](C)O2)[C@H](C)[C@@H](O[C@@H]2O[C@H](C)C[C@H](N(C)C)[C@H]2O)[C@](C)(O)C[C@@H](C)C(=O)[C@H](C)[C@@H](O)[C@]1(C)O.O=C(O)[C@H](O)[C@@H](O)[C@H](O[C@@H]1O[C@H](CO)[C@@H](O)[C@@H](O)[C@H]1O)[C@H](O)CO`, the CL free with Homo sapiens [1] was found to be 14.5 L/h; in the data set on Homo sapiens [3], 31.6 L/h; in the data set with Homo sapiens [4], 98.6 L/h; in the data set with Homo sapiens [5], 113.2 L/h; with Homo sapiens [11], 42.2 L/h; in the data set with Homo sapiens [12], 11.2 L/h. Also, the half-life in data set [2] was 2.24 h; in [13], 1.36 h. In addition, the fraction unbound was determined as 0.583 in [6] and 0.305 in [10]. Further, the values for the Vd in data set [7] and in data set [8] were 57.6 L and 85.5 L, respectively. The clearance was 570 mL/min in [9] and 403 mL/min in [14].

The record behind these values is ChEMBL document CHEMBL3785026, “Pharmacokinetics of erythromycin in patients with severe cirrhosis. Respective influence of decreased serum binding and impaired liver metabolic capacity” (Br J Clin Pharmacol, 1987).
